# Read-outs that look alike come from different tables or passages of the source.
# Test: Second sacrificial agent testing protocol: paste air measurements with DDBS (0.0125 wt %) and rating; for Overall performance rating (second protocol rating): key: 0: Fail; 1: Poor; 2: Good; 3: Preferred; 4: Most preferred; for SA Rating (0-4): key: 0: Fail; 1: Poor; 2: Good; 3: Preferred; 4: Most preferred
# Procedure: The second sacrificial agents evaluation protocol has been designed to assess the relative potential value of candidate sacrificial agents with a maximum of five paste air measurements.
# The first two measurements (of entrained air) are carried out with a standard AEA in a portland cement paste and in a FA:cement paste; these two tests provide reference values which can be used for the relative assessment of a series of sacrificial agents. The other three paste air measurements pertain to the properties and effectiveness of the sacrificial agents.
# 1. Measurement of the air entrained by a standard air-entraining admixture in a cement paste of fixed composition and fluidity; the latter is a reference system which provides ‘reference’ air entrainment values (‘A’ in FIG. 8).
# 2. […] The difference between ‘B’ and ‘A’ in FIG. 8 is the reduction in air entrainment due to the presence of the fly ash; this is illustrated as ‘C’ in FIG. 8.
# In the present SA testing and evaluation protocol, the fly ash selected should remain the same for the entire set of additives tested, in order to provide reliable relative performance ranking. For the present series of test, the Fly Ash selected was the one identified as B1 in Table 1 below; the physico-chemical properties of this fly ash are reported in Table 1.
# In testing for the relative performance of the sacrificial agent, the sacrificial agent dosage was chosen in the range 0-0.1 wt %, which corresponds to typical dosage values observed in paste, mortar and concrete tests reported in Tables 2, 3 and 4 and Tables 7 to 34.
# 3. Measurement of the air entrainment of the SA, by itself, in a cement-only paste at a dosage of 0.1 wt %; this is illustrated as ‘D’ in FIG. 8.
# 4. Measurement of the air entrained by DDBS in the FA-cement paste comprising 0.05% wt SA, under the same conditions as described in 2 above. The air entrainment value observed in this system, compared to that observed in the absence of the SA, yields the air recovery due to the SA, and is illustrated schematically as ‘E’ in FIG. 8.
# 5. Same as in 4 above, but with a higher SA concentration at 0.1 wt %; the air entrainment observed, again compared to the value observed in the absence of the SA, yields a second value of air recovery by the SA and is illustrated as ‘F’ in FIG. 8.
# For the relative performance rating of the group of products chosen as potential SA and listed in Table 36, the following rating scheme (Tables A and B) was adopted (referring to FIG. 8 and quantities defined therein):
# 1: Chemical name of compound tested as potential sacrificial agent • Col. 2: Level of air entrainment by the candidate sacrificial agent, at a concentration of 0.1 wt %, in a Portland cement paste ([…]) • Col. […] 5: Sacrificial agent overall rating index (described below) • Col. 6: Hydrophilic-Lipophilic Balance (HLB) values of candidate sacrificial agent (source and significance of HLB data given below) • Col. 7: Logarithm of the Oil(octanol)/water partition coefficient (Kow) of the candidate sacrificial agents (source and significance of data given below).
# [1] = Portland cement paste (PCA), […]
# [2] = sacrificial agent overall rating index
# [3] = sum of ratings of air entrainment recovery by 0.05% and 0.1% SA, DDBS 0.0125 wt %, 50:50 B1 fly ash:cement paste
# [4] = B1 FA/cement paste, 0.0125 wt % DDBS, 0.10 wt % SA
Compound,"B1 + 0.0125% DDBS + 0.05% SA (air entrainment) (B1 FA/cement paste, […])","B1 + 0.0125% DDBS + 0.1% SA (air entrainment) (B1 FA/cement paste, […])",PCA + 0.1% SA (level of air entrainment by the candidate sacrificial agent) [1],SA Rating (0-4) [2],Overall performance rating (second protocol rating),further results
O=C1OCCO1 [Ethylene carbonate],2.5,1.9,0.0,0,–,–
CC(C)O [i-Propanol],3.7,4.1,2.4,1,1,–
Methylnaphthalene sulfonate Na,–,–,–,–,–,Overall performance rating (second protocol rating) [3]: 4
CC(O)CN(CC(C)O)CC(C)O (stereo not shown) [Tri-isopropanolamine],5.6,7.6,1.3,4,–,–
CCCC[N+](CCCC)(CCCC)CCCC.[Cl-] [Tetrabutyl ammonium chloride],–,–,–,–,3,B1 + 0.0125% DDBS + 0.05% SA (air entrainment): 4.9; B1 + 0.0125% DDBS + 0.1% SA (air entrainment): 4.1; PCA + 0.1% SA (level of air entrainment by the candidate sacrificial agent): 0.6; SA Rating (0-4): 3
CC(C)(C)O [tert-Butanol],6.3,7.0,0.8,4,–,–
CN1CCCC1=O [1-Methyl-2-Pyrrolidinone],–,–,1.9,0,–,"B1 + 0.0125% DDBS + 0.05% SA (air entrainment) (B1 FA/cement paste, 0.0125 wt % DDBS, 0.05 wt % SA): 3.6; B1 + 0.0125% DDBS + 0.1% SA (air entrainment) [4]: 3.8"
Aniline (Phenylamine),3.7,5.6,1.7,2,–,–
CCCCCCCC/C=C\CCCCCCCC(=O)O [Oleic acid],2.2,1.9,2.1,0,–,–
C=CN1CCCC1=O [n-Vinyl-2-pyrrolidinone],3.7,4.3,2.8,1,1,–
CC(C)(C)CO [Neopentanol],4.9,4.7,0.8,3,3,–
CNC(=O)NC [Dimethylurea],–,–,0.5,2,–,B1 + 0.0125% DDBS + 0.1% SA (air entrainment) [4]: 2.9; Overall performance rating (second protocol rating) [3]: 2
CCCC=O [Butyraldehyde],4.0,4.0,0.0,2,2,–
C[S+](C)[O-] [Dimethylsulfoxide],2.5,3.1,0.0,0,–,–
NC(N)=O [Urea],–,2.0,0.1,2,2,–
O[C@H]1[C@H](O)[C@@H](O)[C@H](O)[C@@H](O)[C@H]1O [Inositol],2.1,2.1,0.1,0,–,–
COC(=O)CC(=O)OC [Dimethyl malonate],2.5,2.6,0.2,0,–,–

# — patent publication US7892350B2, “Sacrificial agents for fly ash concrete” (Boral Material Technologies Inc., priority 2003, dated 2011)
